Assay results from patent US20090269795A1, “Mutant alpha4betadelta GABAA receptor and methods of treating anxiety or irritability” (priority 2007, published 2009).

Columns and labels:
α4β2δ GABAA receptors = experiment: Whole cell patch clamp of GABA-gated current, recombinant receptors in HEK-293 cells; assay type: cell-based, human or mouse α4, rat β2, human δ; conditions: 30 nM THP
From the text: Recombinant receptors: Transfection—Plasmids obtained from S. Vicini (rat α1, α5, β2, β3 and γ2), P. Whiting (human α4 and δ) and N. L. Harrison (mouse α4) were propagated in E coli DH5α and prepared using Qiagen Maxi- or Midi-prep kits. (Rat, mouse and human α1, β2, β3 and γ2 subunits are identical or nearly identical.) All receptors were transfected at a 1:1:1 ratio, except α1β2γ2 (1:1:5)^12, α4βδ (5:1:5)^13 and α4β2γ2 (5:1:1). HEK-293 cells were maintained in medium (DMEM:Ham's F-12 1:1) supplemented with 10% fetal calf serum at 37° C. in a humid 5% CO2 atmosphere. Cells were transfected using calcium phosphate or Polyfect (Qiagen) and co-transfected with enhanced green fluorescent protein (ratio of DNA to eGFP was 6:1 or 10:1 depending on the DNA concentration) for visualization. α4-containing GABAA receptors required 2-3 d for maximal levels of expression; all other receptors were recorded 1-2 d after transfection. Because mouse α4 and human α4-containing receptors yielded the same results, the currents were averaged together.
Whole cell patch clamp recording—GABA-gated currents were recorded at room temperature (20-22° C.) at a holding potential of −50 mV^14. The pipet solution contained (in mM): N-methyl-D-glucamine chloride 120, Cs4BAPTA 5 (Calbiochem), Mg-ATP 5, and an ATP regeneration system (20 mM Tris phosphocreatine and creatine kinase). Internal [Cl^−] or the holding potential were varied, using gluconate as the anion, to alter the direction of Cl^− flow, corrected for the junction potential. In some cases, current-voltage curves were constructed using the peak current response to agonist or agonist+THP across a range of holding potentials (−60 to +60) applied as 10 mV steps, or as a voltage ramp. […] Traces are presented as the average of 3 traces after subtraction of the leak current. […] This rapid application technique yields currents with a rapid rise phase. THP was also bath applied 30 s prior to tests of steroid effects. Currents were recorded using an Axopatch 1D amplifier (Axon Instruments) filtered at 2 kHz (four-pole Bessel filter) and detected at 10 kHz (pClamp 5.1). Analysis of peak current was accomplished with pClamp 9.2 and Origin software (Microcal).
Following the recording, the patch was blown out, and the open tip potential recorded using solutions with a 5% difference in NaCl osmolarity to verify the approximate solution exchange time. The time constant (τ) for desensitization was approximated using non-linear curve fitting routines with Levenburg-Marquardt algorithms (Origin software, Microcal). Goodness of fit was determined by minimizing the sum of the squares of deviations of the theoretical curve from the experimental points.
Recombinant receptors: Human embryonic kidney (HEK)-293 cells were transfected with α4 β2δ or other indicated subunit combinations (see Supplementary Methods) and co-transfected with enhanced green fluorescent protein for visualization. GABA-gated currents were recorded at room temperature (20-22° C.) at a holding potential of −50 mV^17 using a pipet solution containing 120 mM: N-methyl-D-glucamine chloride. Internal [Cl^−] or the holding potential were varied to alter the direction of Cl^− flow. […] Currents were recorded using an Axopatch 1D amplifier (Axon Instruments) filtered at 2 kHz (four-pole Bessel filter), detected at 10 kHz and analyzed with pClamp 9.2. Desensitization rate was determined using non-linear curve-fitting routines (Origin, Microcal; see next section).
Further Studies with Recombinant receptors: Transfection—Plasmids obtained from S. Vicini (rat α1, α5, β2, β3 and y2), P. Whiting (human α4 and 6) and N. L. Harrison (mouse α4) were propagated in E coli DH5α and prepared using Qiagen Maxi- or Midi-prep kits. (Rat, mouse and human α1, β2, β3 and γ2 subunits are identical or nearly identical.) All receptors were transfected at a 1:1:1 ratio, except a132γ2 (1:1:5)^12, α4β28 (5:1:5)^13 and α4β2γ2 (5:1:1). […]

thalamic relay neurons = experiment: Tonic current in thalamic relay neurons, slice; assay type: cell-based, mouse; conditions: pre-pubertal; n=6
Experimental: Hippocampal slice: Slice preparation^20: Animals were rapidly decapitated, and the brains removed and cooled using an ice cold solution of artificial cerebrospinal fluid (aCSF) containing (in mM): NaCl 124, KCl 5, CaCl2 2, KH2PO4 1.25, MgSO4 2, NaHCO3 26, and glucose 10, saturated with 95% O2, 5% CO2 and buffered to a pH of 7.4. Following sectioning at 400 μm on a Leica oscillating microtome, slices were incubated for one hour in oxygenated aCSF. Slice recording: Pyramidal cells in CA1 hippocampal slice^20 or thalamic relay neurons in the ventral tier were visualized using a Leica DIC-infrared upright microscope, and recorded at −50 or −60 mV using whole cell patch clamp procedures at room temperature (20-22° C., Axopatch 200B amplifier, Axon Instruments, 20 kHz sampling frequency, 2 kHz 4-pole Bessel filter) and pClamp 9.2 software. Patch pipets were fabricated to yield open tip resistances of 2-4 MΩ. Internal solution in mM for ECl=−70 (or ECl=−30): K-gluconate 141.5 (O), KCl 0 (52.3), CsCl 8.5 (145), HEPES 5, EGTA 5, CaCl2-H2O 0.5, QX-314 5 (Calbiochem), Mg-ATP 2, Li-GTP 0.5, pH 7.2, 290 mOsm. […] Electrode capacitance and series resistance were monitored and compensated; access resistance was monitored throughout the experiment, and cells discarded if the access resistance >10 MΩ. […]

## CC(=O)[C@H]1CC[C@H]2[C@@H]3CC[C@H]4C[C@H](O)CC[C@]4(C)[C@H]3CC[C@]12C [THP, 3α-OH-5α[β]-pregnan-20-one]
α4β2δ GABAA receptors
  effect on Cl− reversal potential: did not itself alter the Cl^− reversal potential
α4β2δ GABAA receptors; no GABA
  effect applied without GABA: had no effect
α4β2δ GABAA receptors; 20 nM GABA
  effect on outward current gated by 20 nM GABA: potentiated
α4β2δ GABAA receptors; 1 μM GABA
  effect on inward currents: robustly increased inward currents
α4β2δ GABAA receptors; 1 μM GABA, −50 mV, mean±SEM
  decrease of outward GABA-gated Cl− current: 28±3%
α4β2δ GABAA receptors; 100 μM GABA
  effect on peak current: unchanged
α4β2δ GABAA receptors; 100 μM GABA for 2 s, pre-THP 8±2%
  desensitization of outward currents: 87±5.6%
α4β2δ GABAA receptors; 100 μM GABA, pre-THP 1700±200 ms
  time constant (τ) of desensitization: 230 ± 35 ms
α4β2δ GABAA receptors; across a range of voltage steps
  decrease of conductance of the outward current: 36-43%
Thalamic relay neurons
  reduction of tonic current: 57±12%
